Laboratory results: patent US7998981B2, “Aminoaryl sulphonamide derivatives as functional 5-HT6 ligands” (Suven Life Sciences Limited, priority 2005, dated 2011)

What was measured:
Human 5-HT6 Receptor = target: T1, Human 5-HT6 Receptor (Homo sapiens, UniProt P50406); experiment: Nova Screen binding assay for human 5-HT6 receptor ([3H]LSD radioligand binding); conditions: human recombinant receptor expressed in HEK293 cells, [3H]LSD 1.5 nM; for inhibition at 0.1 µM: read-out: % Inhibition at 100 nM, radioligand binding data at 5ht6R (h); for Ki: 60 minutes at 37° C., read-out: Ki, radioligand binding data at 5ht6R (h)
T1 construct: host or cells: HEK293
T1 sequence (P50406 whole entry): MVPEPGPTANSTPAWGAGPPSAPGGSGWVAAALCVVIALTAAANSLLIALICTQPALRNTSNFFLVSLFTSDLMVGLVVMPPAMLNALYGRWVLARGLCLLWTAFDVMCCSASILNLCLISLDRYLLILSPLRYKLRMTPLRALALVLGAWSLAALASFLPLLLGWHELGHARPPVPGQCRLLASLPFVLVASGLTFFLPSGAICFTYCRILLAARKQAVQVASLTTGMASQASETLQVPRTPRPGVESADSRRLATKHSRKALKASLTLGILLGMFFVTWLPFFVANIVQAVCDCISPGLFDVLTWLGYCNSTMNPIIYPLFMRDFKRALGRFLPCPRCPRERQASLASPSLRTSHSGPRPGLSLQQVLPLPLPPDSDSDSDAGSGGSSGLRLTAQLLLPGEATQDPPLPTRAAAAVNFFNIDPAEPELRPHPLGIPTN
Description: Nova Screen Binding Assay for Human 5-HT6 Receptor
Pharmacological data Compounds can be tested according to the following the procedures.
Receptor source: Human recombinant expressed in HEK293 cells
Radioligand: [^3H]LSD (60-80 Ci/mmol)
Final ligand concentration—[1.5 nM]
Non-specific determinant: Methiothepin mesylate—[0.1 μM]
Reference compound: Methiothepin mesylate
Positive control: Methiothepin mesylate
Incubation conditions: Reactions were carried out in 50 mM TRIS-HCl (pH 7.4) containing 10 mM MgCl2, 0.5 mM EDTA for 60 minutes at 37° C. The reaction was terminated by rapid vacuum filtration onto glass fiber filters. Radioactivity trapped onto the filters was determined and compared to control values in order to ascertain any interactions of test compound(s) with the cloned serotonin -5HT6 binding site.
Literature Reference: Monsma F. J. Jr., et al., Molecular Cloning and Expression of Novel Serotonin Receptor with High Affinity for Tricyclic Psychotropic Drugs. Mol. Pharmacol. (43): 320-327 (1993).

Male Wistar rats = experiment: Object recognition task model; assay type: in vivo, rat; conditions: orally or i.p. one hour before T1 and T2; T2 24 hour after T1; example 6 at 10 mg/Kg orally (FIG. 1)
Description: Object Recognition Task Model
The cognition-enhancing properties of compounds of this invention were estimated using a model of animal cognition: the object recognition task model.
Male wistar rats (230-280 g) obtained from N I.N. (National Institute of Nutrition, Hyderabad, India) were used as an experimental animal. Four animals were housed in each cage. Animals were kept on 20% food deprivation before one day and given water ad libitum throughout the experiment, and maintained on a 12 h light/dark cycle. Also the rats were habituated to individual arenas for 1 hour in absence of any objects.
One group of 12 rats received vehicle (1 mL/Kg) orally and another set of animals received compound of the formula (I) either orally or i.p., before one hour of the familiar (T1) and choice trial (T2). The experiment was carried out in a 50×50×50 Cm open field made up of acrylic. In the familiarization phase, (T1), the rats were placed individually in the open field for 3 min., in which two identical objects (plastic bottles, 12.5 Cm height×5.5 Cm diameter) covered in yellow masking tape alone (a1 and a2) were positioned in two adjacent corners, 10 Cm. from the walls. After 24 hour of the (T1) trial for long-term memory test, the same rats were placed in the same arena as they were placed in T1 trial. […]

Adult male Wistar rats = experiment: Passive avoidance (single-trial, step through, light-dark paradigm); assay type: in vivo, rat; conditions: 10 mg/Kg oral dose; recall 24 h, 72 h and 7 day post-training (FIG. 2)
From the text: Passive Avoidance Apparatus Animals were trained in a single-trial, step through, light-dark passive avoidance paradigm. The training apparatus consisted of a chamber 300 mm in length, 260 mm wide, and 270 mm in height, constructed to established designs. The front and top were transparent, allowing the experimenter to observe the behavior of the animal inside the apparatus. The chamber was divided into two compartments, separated by a central shutter that contained a small opening 50 mm wide and 75 mm high set close to the front of the chamber. The smaller of the compartments measured […] in width and contained a low-power (6V) illumination source. The larger compartment measured 210 mm in width and was not illuminated. […] A resistance range of […] was calculated for a control group of rats and the apparatus was calibrated accordingly. […] Latency to enter the dark chamber was recorded (usually <20 s), and having completely entered the dark compartment an inescapable foot shock of 0.75 mA for 3 s was administered to the animal. […] Recall of this inhibitory stimulus was evaluated 24 h, 72 h and on 7 day post-training by returning the animal into the light chamber and recording their latency to enter the dark chamber, a criterion time of 300 s was employed.

Structure (SMILES)	inhibition at 0.1 µM (Human 5-HT6 Receptor; 100 nM) [%]	Ki (Human 5-HT6 Receptor) [nM]	novel object recognition (exploration time with novel object, discrimination index) (Male Wistar rats)	latency to reach the dark zone (Adult male Wistar rats)	% Inhibition at 100 nM, radioligand binding data at 5ht6R (h) (Human 5-HT6 Receptor; 100 nM) [%]
CN1CCC(Nc2cccc(S(=O)(=O)n3ccc4ccccc43)c2)CC1 [Example 1, 1-[3-(1-Methylpiperidin-4-yl)amino]benzenesulfonyl-1H-indole]	96.8	3.19			
COc1ccc2c(ccn2S(=O)(=O)c2cccc(NC3CCN(C)CC3)c2)c1 [Example 2, 1-[3-(1-Methylpiperidin-4-yl)amino]benzenesulfonyl-5-methoxyindole]	82.2	12.5			
CN1CCC(Nc2cccc(S(=O)(=O)n3ccc4cc(Br)ccc43)c2)CC1 [Example 4, 1-[3-(1-Methylpiperidin-4-yl)amino]benzenesulfonyl-5-bromoindole]	92.2	10.3			
CN1CCC(Nc2cccc(S(=O)(=O)n3ccc4cc(F)ccc43)c2)CC1 [Example 6, 1-[3-(1-Methylpiperidin-4-yl)amino]benzenesulfonyl-5-fluoroindole]	93.2	7	positive effects	significant increase in latency	
COc1ccc2c(ccn2S(=O)(=O)c2ccc(C)c(NC3CCN(C)CC3)c2)c1 [Example 10, 1-[3-(1-Methylpiperidin-4-yl)amino-4-methyl]benzenesulfonyl-5-methoxyindole]	85.3	20.9			
COc1ccc(S(=O)(=O)n2ccc3ccccc32)cc1NC1CCN(C)CC1 [Example 17, 1-[3-(1-Methylpiperidin-4-yl)amino-4-methoxy]benzenesulfonyl-1H-indole]	101	1.29			
CN1CCC(Nc2cc(S(=O)(=O)n3ccc4ccccc43)ccc2F)CC1 [Example 25, 1-[3-(1-Methylpiperidin-4-yl)amino-4-Fluoro]benzenesulfonylindole]					99.33
